Source: patent publication US8772318B2, “Methods and compositions related to targeting monoacylglycerol lipase” (The Scripps Research Institute, priority 2008, dated 2014)

How the values were obtained:
[1] = Locomotor activity (hypomotility); type: in vivo, mouse
Description: (§1) Behavioral Studies. […] A total of four groups of mice were used, with a sample size of 14 mice/group. Before injections, the mice were evaluated for baseline responses in the tail immersion test, as well for rectal temperatures. […] For determining hypomotility each mouse was placed in a clear Plexiglas box (42.7×21.0×20.4 cm) for a 10 min assessment period and Anymaze (Stoelting, Wood Dale, Ill.) software was used to determine the percentage of time spent immobile. Subjects were assessed for nociception in the tail immersion assay. Each mouse was placed head first into a small bag fabricated from absorbent under pads (VWR Scientific Products; 4 cm diameter, 11 cm length) with the tail out of the bag. The experimenter gently held the mouse and immersed approximately 1 cm of the tip of the tail into a water bath maintained at 56.0° C. The latency for the animal to withdraw its tail from the water within a 10 s cutoff time was scored. Catalepsy was evaluated using the bar test, in which the front paws of each subject were placed on a rod (0.75 cm diameter) that was elevated 4.5 cm above the surface. Mice that remained motionless with their paws on the bar for 10 s (with the exception of respiratory movements) were scored as cataleptic. […] Rectal temperature was determined by inserting a thermocouple probe 2.0 cm into the rectum and temperature was obtained from a telethermometer.

[2] = Rectal temperature (hypothermia); type: in vivo, mouse; settings: rimonabant 3 mg/kg before JZL184 16 mg/kg
Description: as §1

[3] = Acetic acid abdominal stretching (writhing) assay; type: in vivo, mouse; settings: rimonabant 3 mg/kg before JZL184 16 mg/kg
Description: A second group of naïve subjects (n=10-11 mice/group) were evaluated in the acetic acid stretching assay. […] Acetic acid (0.6%) was injected intraperitoneally in a volume of 10 μl/g body weight 120 min after the second injection. The number of stretches (constriction of abdomen, turning of trunk (twist) and extension of the body and hind limbs) per mouse was counted during a 20-min period after the administration of acetic acid.

[4] = system: human cancer cell lines (C8161, SKOV3, 231MFP, MUM2C, OVCAR3); assay: Lipid measurements in cancer cells; type: cell-based; settings: antagonist 1 μM, 4 hr
Description: Pharmacological inhibition of MAGL in cancer cells. Pharmacological inhibition studies were conducted as described previously (Chiang et al., Chem. Biol. 13:1041-1050, 2006). Cancer cells were maintained in RPMI medium 1640 with 10% (v/v) fetal calf serum at 37° C. in a humidified atmosphere of 5% CO2/95% air. At 80% confluency, cells were trypsinized and counted using a hemocytometer, and 1×10^6 cells were plated in 6 cm dishes (subconfluent). […] After incubation for 4 hr, the cells were harvested and analyzed by ABPP or LC-MS.
Lipid measurements in cancer cells. Lipid measurements were conducted similarly to protocols described previously (Chiang et al., 2006; supra). Cancer cells were grown in serum-free media for 4 hrs to minimize the contribution of serum-derived lipids to the cellular profiles. The cells (1×10^6 cells/6 cm dish, 80% confluency) were washed with twice with phosphate buffer saline (PBS), isolated by centrifugation at 1,400×g, and dounce-homogenized in 4 ml of a 2:1:1 mixture of chloroform:methanol:Tris buffer. Samples were homogenized in the presence of the following synthetic standards: C12:0 MAGE (10 nmol), C15:0 FFA (10 nmol). Organic and aqueous layers were separated by centrifugation at 2000×g for 5 min and the organic layer was collected. The aqueous layer was acidified (for metabolites such as LPA) by adding 5% formic acid, followed by the addition of 2 ml chloroform. The mixture was vortexed, and the organic layers were combined, dried down under N2 and dissolved in 100 μl chloroform, of which 30 μl was analyzed by LC-MS.
LC-MS analysis was performed by using an Agilent 1100 LC-MSD SL instrument. […] Mobile phase A was composed of a 95:5 ratio of water:methanol, and mobile phase B consisted of 2-propanol, methanol, and water in a 60:35:5 ratio. Solvent modifiers such as 0.1% formic acid and 0.1% ammonium hydroxide were used to assist ion formation as well as to improve the LC resolution in both positive and negative ionization modes, respectively. The flow rate for each run started at 0.1 ml/min for 5 min, to alleviate backpressure associated with injecting chloroform. The gradient started at 0% B and increased linearly to 100% B over the course of 45 min with a flow rate of 0.4 ml/min, followed by an isocratic gradient of 100% B for 17 min at 0.5 ml/min before equilibrating for 8 min at 0% B with a flow rate of 0.5 ml/min. MS analysis was performed with an electrospray ionization (ESI) source. The capillary voltage was set to 3.0 kV, and the fragmentor voltage was set to 100 V. The drying gas temperature was 350° C., the drying gas flow rate was 10 L/min, and the nebulizer pressure was 35 psi.
Lipidomic analysis was performed in both targeted and untargeted mode by LC-MS analysis. Standard lipid classes were quantitated by targeting using selected ion monitoring (SIM) (except for very high-abundance metabolites which were quantitated by untargeted analysis) and identities of metabolites were confirmed by coelution of metabolites with their respective standards and mass accuracy to within 10 ppm as determined with an accurate mass Agilent 6520 Accurate Mass QTOF-MS-MS. These lipids were quantified by measuring the area under the peak and were normalized to an internal standard (C12:0 MAGE in positive mode or C15:0 FFA in negative mode). […]

[5] = Tail immersion assay of thermal pain sensation; type: in vivo, mouse; settings: rimonabant 3 mg/kg before JZL184 16 mg/kg
Description: as §1

[6] = system: human cancer cell lines (C8161, SKOV3, 231MFP, MUM2C, OVCAR3); assay: Cell migration assay (Transwell); type: cell-based; settings: antagonist 1 μM, 4 hr
Description: Cell migration, cell survival, and invasion studies. Migration assays were performed in Transwell chambers (Corning) with 8 μm pore-sized membranes coated with 10 μg/ml collagen for 4 h at 37° C. A total of 24 hr before the start of the migration assay, cancer cell lines were plated at a concentration of 1×10^6 cells per 6 cm dish. At the start of the migration assay, cells were harvested by washing two times with PBS and were then serum starved in serum-free media for 4 hr. Inhibitor, lipid or vehicle (0.1% DMSO) were preincubated with the cells during this 4 h time. Serum-starved cells were trypsinized, spun at 1400×g for 3 min, resuspended, and counted. 50,000 cells were seeded in the upper chamber of the transwells in 200 μl serum-free media (containing inhibitor, lipid or vehicle). Inhibitor, lipid or vehicle was also added to the lower chamber, and cells were allowed to migrate for 5 h (for C8161 and 231MFP cells) or 20 hr (SKOV3, MUM2C and OVCAR3 cells). The filters were then fixed and stained with Diff-Quik (Dade Behring). Cells that had not migrated through the chamber were removed with a cotton ball. The cells that migrated were counted at a magnification of 400×, and 4 fields were independently counted from each migration chamber. An average of cells in 4 fields for one migration chamber represents n=1.

[7] = Bar test (catalepsy, hyperreflexia); type: in vivo, mouse; settings: rimonabant 3 mg/kg before JZL184 16 mg/kg
Description: as §1

In the case of Cc1c(C(=O)NN2CCCCC2)nn(-c2ccc(Cl)cc2Cl)c1-c1ccc(Cl)cc1 [rimonabant], the “movement, rimonabant on its own” value ([1]; rimonabant 3 mg/kg) was “significant reductions in movement”, the “effect of rimonabant on JZL184-induced immobility” value ([1]; rimonabant 3 mg/kg before JZL184 16 mg/kg) was “partial blockade” and the “effect of rimonabant on JZL184 hypothermic effect” value [2] was “completely blocked”. For the same compound, the “effect of rimonabant pre-treatment on JZL184 analgesia, acetic acid writhing” value [3] was “blocked”, the “FFA levels in shControl and shMAGL cancer cells” value [4] was “unchanged” and the “effect of rimonabant pre-treatment on JZL184 analgesia, tail immersion” value [5] was “blocked”. For the same compound, the “migratory defect in shMAGL cancer cells” value [6] was “not rescued” and the “effect of rimonabant on JZL184 hyperreflexia effect” value [7] was “completely blocked”.
